Reference: patent publication US20240199648A1, “MAP4K1 INHIBITORS” (Blueprint Medicines Corporation, priority 2021, published 2024)

Experiments:
[1] = target: T1, MAP4K1 (HPK1) (Homo sapiens, UniProt Q92918); assay: Inhibition of MAP4K1 biochemical enzymatic activity (EZReader 2 electrophoretic mobility shift assay); conditions: HPK1 (Invitrogen), S6K2tide 1.5 μM, 120 min; ATP 26 μM or 1000 μM (not stated which)
T1 construct: purchased Invitrogen
Excerpt: MAP4K1 (HPK1) and relevant off-target enzymatic activity was monitored using the Perkin Elmer electrophoretic mobility shift technology platform—the EZReader 2. […] Within the linear, steady-state phase of the kinase enzymatic reaction, the mixed pool of phosphorylated (product) and non-phosphorylated (substrate) peptides was passed through the microfluidic system of the PerkinElmer EZ Reader 2, under an applied electric potential difference. The presence of the phosphate group on the product peptide provided a difference in mass and charge between that of the substrate peptide, resulting in a separation of the substrate and product pools in the sample (Perrin et al. 2010). As the product and substrate peptide mixture passes the lasers within the instrument, these pools are detected (λex=488 nm, λem=568 nm) and resolved as separate peaks. The ratio between these peaks reflects the activity of the compound at that concentration, in that well, under those conditions.
Inhibitors were dissolved in 100% DMSO at a stock concentration of 10 mM. A 100×, 10-point, 4-fold serial dilution of each inhibitor was created in 100% DMSO either manually or on a Hamilton STAR liquid handler, starting at a relevant concentration, usually 1 mM. A volume of 0.130 μL of each concentration was transferred to the relevant wells of a 384-well plate (Greiner 781 201) in diplicate using a TTPLabtech Mosquito nano-litre dispenser. Using a Multidrop Combi, the remaining constituents of the kinase reaction were added to the 130 nL of dosed compound as follows (see table below for final reaction details):
Enzyme activity assays at the ^APPKM for ATP or 1 mM ATP: In each well of a 384-well plate, 0.1-15 nM of untreated enzyme was incubated in a total of 13 μL of buffer (100 mM HEPES pH 7.5, 0.015% Brij 35, 10 mM MgCl2, 1 mM DTT) with 1.5 μM fluorescent peptid and 20-1000 μM ATP, at 25° C., for 60-180 minutes in the presence or absence of a dosed concentration series of compound (1% DMSO final concentration). The kinase reactions were stopped by the addition of 70 μl of Stop buffer (100 mM HEPES pH 7.5, 0.015% Brij 35, 35 mM EDTA and 0.2% of Coating Reagent 3 (Caliper Lifesciences)). The plates were read on a Caliper EZReader 2 as described above.

[2] = test system: Primary T Cell; assay: T cell enhancement of cytokines: IL2 measurement (HTRF) in expanded CD3+ T cells stimulated with anti-CD3/anti-CD28; assay type: cell-based, human; conditions: Homo sapiens, T-cell, 24 h, plate-bound anti-CD3 and soluble anti-CD28, 24 h, read-out: IL-2 Primary T Cell EC50
Experimental: T cells are isolated from whole blood of healthy donors by immunomagnetic negative selection following manufacture's protocol (StemCell Technologies, human T cell isolation kit). Purity of isolated cells is assessed by flow cytometry and yields 95-98% CD3^+ T cells. For expansion of T cells, 1×10^6 cells/well are plated in serum free cell expansion media (ThermoFisher) containing 30U of recombinant human IL2 (R&D) and stimulated with 25 ul of CD3/CD28 beads (Invitrogen) in 24 well plates for 3-4 days. T cells are then expanded in 175 cm flasks and maintained at a cell density of 1 to 2.5×10^6 cells/ml days by addition of ⅔ of fresh media every 2-3 days. After 10-14 days, cells are frozen in BamBanker freezing media (Thermo) and stored in liquid nitrogen.
For IL2 measurement, expanded CD3+ T cells are dispensed at 100K cells/well (cultured in X-VIVO 10 Serum-free media) and are stimulated with plate-bound anti-CD3 and soluble anti-CD28 in the presence of vehicle or compound of the disclosure at various concentrations for 24 h. As outlined in the manufacturer's protocol (Cisbio), 16 μL of conditioned media is transferred to a white 384-well low volume plate. Following a 24 h incubation with the anti-IL2 antibodies, the homogenous time resolved fluorescence (HTRF) is measured.

T1 sequence (Q92918 whole entry): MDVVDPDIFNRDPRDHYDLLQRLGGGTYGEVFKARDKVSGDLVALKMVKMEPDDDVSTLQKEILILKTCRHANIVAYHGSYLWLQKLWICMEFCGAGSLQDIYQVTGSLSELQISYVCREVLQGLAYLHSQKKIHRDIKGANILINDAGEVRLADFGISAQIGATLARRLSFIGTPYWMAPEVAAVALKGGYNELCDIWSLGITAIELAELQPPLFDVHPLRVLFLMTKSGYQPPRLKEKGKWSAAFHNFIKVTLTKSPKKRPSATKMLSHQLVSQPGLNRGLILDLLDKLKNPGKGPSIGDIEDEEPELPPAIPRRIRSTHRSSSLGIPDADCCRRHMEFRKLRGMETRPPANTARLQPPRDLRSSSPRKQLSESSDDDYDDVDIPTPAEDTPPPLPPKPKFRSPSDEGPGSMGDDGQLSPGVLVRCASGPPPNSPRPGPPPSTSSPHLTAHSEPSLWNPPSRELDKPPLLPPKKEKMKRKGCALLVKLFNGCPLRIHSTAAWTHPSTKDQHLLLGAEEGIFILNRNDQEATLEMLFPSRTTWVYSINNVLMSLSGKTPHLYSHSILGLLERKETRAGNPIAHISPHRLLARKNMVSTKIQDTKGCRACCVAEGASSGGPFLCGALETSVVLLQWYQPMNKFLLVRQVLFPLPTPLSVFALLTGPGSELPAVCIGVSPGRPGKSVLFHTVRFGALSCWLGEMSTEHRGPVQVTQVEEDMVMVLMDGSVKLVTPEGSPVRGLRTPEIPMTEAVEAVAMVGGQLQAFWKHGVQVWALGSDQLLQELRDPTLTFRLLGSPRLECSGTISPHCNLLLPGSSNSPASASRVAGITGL

## CC(=O)N1CC(Oc2ncc(C(C)(C)N)c3cc(Nc4ccc5c(n4)[C@@H](C)C(C)(C)OC5=O)ncc23)C1 [Compound 4, (R)-2-((8-((1-Acetylazetidin-3-yl)oxy)-5-(2-aminopropan-2-yl)-2,7-naphthyridin-3-yl)amino)-7,7,8-trimethyl-7,8-dihydro-5H-pyrano[4,3-b]pyridin-5-one]
[1]
  IC50: 0.15 nM
[2]
  EC50: 19.9 nM

## C[C@@H]1OC(=O)c2ccc(Nc3cc4c(C(C)(C)N)cnc(OC5CN(C(=O)C6CC6)C5)c4cn3)nc2[C@H]1C [Compound 5]
[1]
  IC50: 0.17 nM
[2]
  EC50: 17.7 nM

## CCC(=O)N1CC(Oc2ncc(C(C)(C)N)c3cc(Nc4ccc5c(n4)[C@@H](C)C(C)(C)OC5=O)ncc23)C1 [Compound 6]
[1]
  IC50: 0.2 nM
[2]
  EC50: 22.5 nM

## CC(=O)N1C[C@@H](Oc2ncc(C(C)(C)N)c3cc(Nc4ccc5c(n4)[C@@H](C)C(C)(C)OC5=O)ncc23)[C@@H]1C [Compound 7]
[1]
  IC50: 0.12 nM
[2]
  EC50: 22.3 nM

## C[C@@H]1c2nc(Nc3cc4c(C(C)(C)N)cnc(OC5CN(C(=O)C6CC6)C5)c4cn3)ccc2C(=O)OC1(C)C [Compound 8]
[1]
  IC50: 0.16 nM
[2]
  EC50: 32.7 nM

## C[C@@H]1OC(=O)c2ccc(Nc3cc4c(C(C)(C)N)cnc(OC5CN(C(=O)[C@H]6C[C@H]6F)C5)c4cn3)nc2[C@H]1C [Compound 9]
[1]
  IC50: 0.16 nM
[2]
  EC50: 16.8 nM

## C[C@@H]1OC(=O)c2ccc(Nc3cc4c(C(C)(C)N)cnc(OC5CN(C(=O)[C@@H]6C[C@@H]6F)C5)c4cn3)nc2[C@H]1C [Compound 10]
[1]
  IC50: 0.13 nM
[2]
  EC50: 8.1 nM

## C[C@@H]1c2nc(Nc3cc4c(C(C)(C)N)cnc(OC5CN(C(=O)[C@@H]6C[C@@H]6F)C5)c4cn3)ccc2C(=O)OC1(C)C [Compound 12]
[1]
  IC50: 0.16 nM
[2]
  EC50: 10.5 nM

## C[C@@H]1c2nc(Nc3cc4c(C(C)(C)N)cnc(OC5CN(C(=O)[C@H]6C[C@H]6F)C5)c4cn3)ccc2C(=O)OC1(C)C [Compound 13, (R)-2-((5-(2-aminopropan-2-yl)-8-((1-((1R,2R)-2-fluorocyclopropane-1-carbonyl)azetidin-3-yl)oxy)-2,7-naphthyridin-3-yl)amino)-7,7,8-trimethyl-7,8-dihydro-5H-pyrano[4,3-b]pyridin-5-one]
[1]
  IC50: 0.17 nM
[2]
  EC50: 23.2 nM

## C[C@@H]1c2nc(Nc3cc4c(C(C)(C)N)cnc(O[C@@H]5CN(C(=O)[C@@H]6C[C@@H]6F)[C@H]5C)c4cn3)ccc2C(=O)OC1(C)C [Compound 14]
[1]
  IC50: 0.19 nM
[2]
  EC50: 15.3 nM

## COC1CN(C(=O)[C@H]2C[C@@H](Oc3ncc(C(C)(C)N)c4cc(Nc5ccc6c(n5)[C@@H](C)C(C)(C)OC6=O)ncc34)C2)C1 [Compound 15, (R)-2-((5-(2-aminopropan-2-yl)-8-((cis)-3-(3-methoxyazetidine-1-carbonyl)cyclobutoxy)-2,7-naphthyridin-3-yl)amino)-7,7,8-trimethyl-7,8-dihydro-5H-pyrano[4,3-b]pyridin-5-one]
[1]
  IC50: 0.13 nM
[2]
  EC50: 42 nM

## CC(=O)N1CC(Oc2ccc(C(C)(C)N)c3cc(Nc4ccc5c(n4)[C@@H](C)[C@H](C)OC5=O)ncc23)C1 [Compound 19]
[1]
  IC50: 0.2 nM
[2]
  EC50: 41.1 nM

## CC(=O)N1CC(Oc2ccc(C(C)(C)N)c3cc(Nc4ccc5c(n4)[C@@H](C)C(C)(C)OC5=O)ncc23)C1 [Compound 21, (R)-2-((8-((1-Acetylazetidin-3-yl)oxy)-5-(2-aminopropan-2-yl)isoquinolin-3-yl)amino)-7,7,8-trimethyl-7,8-dihydro-5H-pyrano[4,3-b]pyridin-5-one]
[1]
  IC50: 0.14 nM
[2]
  EC50: 16.8 nM

## CC(=O)N1CC(Nc2ncc(C(C)(C)N)c3cc(Nc4ccc5c(n4)[C@@H](C)C(C)(C)OC5=O)ncc23)C1 [Compound 22]
[1]
  IC50: 0.54 nM
[2]
  EC50: 479 nM

## C[C@@H]1OC(=O)c2ccc(Nc3cc4c(C(C)(C)N)ccc(OC5CN(C(=O)C6CC6)C5)c4cn3)nc2[C@H]1C [Compound 29]
[1]
  IC50: 0.12 nM
[2]
  EC50: 11 nM

## C[C@@H]1c2nc(Nc3cc4c(C(C)(C)N)cnc(OCCN5CCCC5=O)c4cn3)ccc2C(=O)OC1(C)C [Compound 31]
[1]
  IC50: 0.21 nM
[2]
  EC50: 42.8 nM

## C[C@@H]1OC(=O)c2ccc(Nc3cc4c(C(C)(C)N)cnc(O[C@H]5C[C@@H](C(=O)N(C)C)C5)c4cn3)nc2[C@H]1C [Compound 33]
[1]
  IC50: 0.15 nM
[2]
  EC50: 9.2 nM

## C[C@@H]1OC(=O)c2ccc(Nc3cc4c(C(C)(C)N)cnc(OC5CN(C(=O)N(C)C)C5)c4cn3)nc2[C@H]1C [Compound 34]
[1]
  IC50: 0.19 nM
[2]
  EC50: 43.3 nM

## C[C@@H]1c2nc(Nc3cc4c(C(C)(C)N)cnc(OCCCC(=O)N(C)C)c4cn3)ccc2C(=O)OC1(C)C [Compound 39]
[1]
  IC50: 0.14 nM
[2]
  EC50: 14 nM

## CC[C@@](C)(N)c1cnc(OC2CN(C(=O)C3CC3)C2)c2cnc(Nc3ccc4c(n3)[C@@H](C)[C@H](C)OC4=O)cc12 [Compound 49]
[1]
  IC50: 0.24 nM
[2]
  EC50: 25.7 nM

## C[C@@H]1OC(=O)c2ccc(Nc3cc4c(C(C)(C)N)cnc(OC5CN(C(=O)C6COC6)C5)c4cn3)nc2[C@H]1C [Compound 54]
[1]
  IC50: 0.21 nM
[2]
  EC50: 29.3 nM

## COC[C@@](C)(N)c1ccc(OC2CN(C(C)=O)C2)c2cnc(Nc3ccc4c(n3)[C@@H](C)C(C)(C)OC4=O)cc12 [Compound 56]
[1]
  IC50: 0.17 nM
[2]
  EC50: 23.8 nM

## C[C@@H]1c2nc(Nc3cc4c(C(C)(C)N)cnc(OC5CN(C(=O)N(C)C)C5)c4cn3)ccc2C(=O)OC1(C)C [Compound 57]
[1]
  IC50: 0.13 nM
[2]
  EC50: 21.1 nM

## COC[C@@](C)(N)c1cnc(OC2CN(C(C)=O)C2)c2cnc(Nc3ccc4c(n3)[C@@H](C)C(C)(C)OC4=O)cc12 [Compound 62]
[1]
  IC50: 0.29 nM
[2]
  EC50: 107 nM

## CC(C)(N)c1cnc(OC2CN(C(=O)C3CC3)C2)c2cnc(Nc3ccc4c(n3)C3(CC3)C(C)(C)OC4=O)cc12 [Compound 63]
[1]
  IC50: 0.19 nM
[2]
  EC50: 23.2 nM

## C[C@@H]1c2nc(Nc3cc4c(C(C)(C)N)cnc(O[C@@H]5CN(C(=O)C6CC6)[C@H]5C)c4cn3)ccc2C(=O)OC1(C)C [Compound 65]
[1]
  IC50: 0.2 nM
[2]
  EC50: 17.5 nM

## CC[C@@](C)(N)c1cnc(OC2CN(C(=O)C3CC3)C2)c2cnc(Nc3ccc4c(n3)[C@@H](C)C(C)(C)OC4=O)cc12 [Compound 70]
[1]
  IC50: 0.18 nM
[2]
  EC50: 12.5 nM

## C[C@@H]1c2nc(Nc3cc4c(C(C)(C)N)cnc(OC5CN(C(=O)N6CCC6)C5)c4cn3)ccc2C(=O)OC1(C)C [Compound 72]
[1]
  IC50: 0.21 nM
[2]
  EC50: 30.5 nM

## C[C@@H]1OC(=O)c2ccc(Nc3cc4c(C(C)(C)N)cnc(OC5CN(C(=O)[C@@H]6CCCO6)C5)c4cn3)nc2[C@H]1C [Compound 76]
[1]
  IC50: 0.17 nM
[2]
  EC50: 47.3 nM

## C[C@@H]1c2nc(Nc3cc4c(C(C)(C)N)cnc(OC5CN(C(=O)C6COC6)C5)c4cn3)ccc2C(=O)OC1(C)C [Compound 77]
[1]
  IC50: 0.36 nM
[2]
  EC50: 47.8 nM

## COC[C@@](C)(N)c1cnc(OC2CN(C(=O)C3CC3)C2)c2cnc(Nc3ccc4c(n3)[C@@H](C)[C@H](C)OC4=O)cc12 [Compound 80]
[1]
  IC50: 0.17 nM
[2]
  EC50: 62.9 nM

## C[C@@H]1OC(=O)c2ccc(Nc3cc4c(C(C)(C)N)cnc(OC5CN(C(=O)[C@@H]6C[C@@H]6F)[C@H]5C)c4cn3)nc2[C@H]1C (stereo partly drawn) [Compound 85]
[1]
  IC50: 0.1 nM
[2]
  EC50: 17.8 nM

## COC1CN(C(=O)[C@H]2C[C@@H](Oc3ncc(C(C)(C)N)c4cc(Nc5ccc6c(n5)[C@@H](C)[C@H](C)OC6=O)ncc34)C2)C1 [Compound 92]
[1]
  IC50: 0.17 nM
[2]
  EC50: 34 nM
